In PubChem BioAssay AID2060501 (Molecular Pharmacology Branch, DTP, NCI, 2025):

Test system: 282377-053-R-J1-PDC complex spheroids, viability
Experiment: Anticancer human tumor 282377-053-R-J1-PDC patient-derived colon adenocarcinoma cell line growth inhibition [GQUAD]
Conditions: for IC50: curve of first compound; for viability, T/C: stronger effect = lower value
From the text: DNA G-quadruplex Stabilizer Agents in Combinations in Complex Spheroids
A high-throughput screen of multi-cell type tumor spheroids was designed to identify active combinations of DNA G-quadruplex stabilizer agents and targeted small molecules. Complex spheroids include a stromal component modeled by human endothelial cells (HUVEC) and fibroblasts modeled by human mesenchymal stem cells (MSCs). The concentration ranges selected for each drug and investigational agent were based upon clinically achievable concentrations if the clinical Cmax of the agent was known.
Compounds. The drugs and investigational agents: pidnarulex (CX-5461; NSC782164), APTO-253 (NSC789042), BRACO-19 (NSC847499), peposertib (NSC802822), ceralasertib (NSC780249), elimusertib (NSC800525), camonsertib (NSC841442), AZD-1390 (NSC803789), olaparib (NSC753686), talazoparib (NSC767125), ART-558 (NSC835418), sotorasib (NSC818433), MRTX-1133 (NSC836407), SN-38 (NSC673596), topotecan (NSC609699), etoposide (NSC141540), doxorubicin (NSC123127), gemcitabine (NSC613327), 5-fluorouracil (NSC19893), paclitaxel (NSC125973), vemurafenib (NSC761431), panobinostat (NSC761190), R-306465 (JNJ-16241199; NSC773264), adavosertib (NSC754352), TP-3654 (NSC805149), carboplatin (NSC241240), KSQ-4279 (NSC840948), and staurosporine (NSC755774) were obtained from the National Cancer Institute (NCI) Developmental Therapeutics Program Chemical Repository (34). The FDA-approved anticancer drug set is available from the NCI Developmental Therapeutics Program. […] The stock solutions were prepared in dimethyl sulfoxide (DMSO, Sigma-Aldrich, St. Louis, MO, cat. D2650) at 800-fold the tested concentration and stored at -70 degrees C prior to their use. All drugs and investigational agents were tested over a range starting from a high concentration at or near the clinical Cmax and decreasing in half-log increments. If the clinical Cmax for an agent had not been determined, the highest concentration tested was 10 microM.
2.3 Cell Culture. All cells were maintained in an incubator at 37 degrees C and 5% CO2 with 95% humidity. The PDC lines were cultured according to standard operating procedures established by the NCI PDMR. All PDCs were thawed and cultured in Matrigel-coated flasks prepared with a working solution of 1X Ham's F-12 nutrient mix, without supplementation (Invitrogen, cat. 11765054), 100 U/mL penicillin-streptomycin (Invitrogen, cat. 15140122), and 2.5% Matrigel (Corning Inc., cat. 354248) for the first three passages. The 857933-349-R-J2-PDC line was cultured in 6C/Colon 1B media, which includes advanced DMEM/F-12 (Thermo Fisher Scientific, cat. 12634028), 10 mM HEPES (Thermo Fisher Scientific, cat. 15630080), 1X GlutaMAX supplement (Thermo Fisher Scientific, cat. 35050061), 0.1 mg/mL primocin (InvivoGen, cat. ant-pm-2), 10% defined fetal bovine serum, heat inactivated (HyClone Laboratories Inc., cat. SH30070.03HI), 50% L-WRN conditioned media (ATCC, cat. CRL-3276), 1.25 mM N-Acetyl-L-cysteine (Sigma-Aldrich, cat. A9165), 10 mM nicotinamide (Sigma-Aldrich, cat. N0636), 1X B-27 supplement (Thermo Fisher Scientific, cat. 17504044), 1X N-2 supplement (Thermo Fisher Scientific, cat. 17502048), 10 microM Y-27632 dihydrochloride (Tocris Bioscience, cat. 1254), and 50 ng/mL human EGF recombinant protein (Thermo Fisher Scientific, cat. PHG0311). The 485176-168-R4-J1-PDC line was cultured in Panc media, which includes all 6C/Colon 1B media components plus 100 ng/mL human FGF-10 (Thermo Fisher Scientific, cat. 100-26), 500 nM SB-431542 (Selleckchem, cat. S1067), and gastrin (Tocris, cat. 3006).
[…]

[1] = second compound 0.0316 µM, first compound 0.0316 µM
[2] = second compound 0.0316 µM, first compound 0.1 µM
[3] = second compound 0.0316 µM, first compound 0.316 µM
[4] = second compound 0.0316 µM, first compound 1 µM
[5] = second compound 0.0316 µM, first compound 3.16 µM
[6] = second compound 0.0316 µM, first compound 10 µM
[7] = second compound 0.1 µM, first compound 0.0316 µM
[8] = second compound 0.1 µM, first compound 0.1 µM
[9] = second compound 0.1 µM, first compound 0.316 µM
[10] = second compound 0.1 µM, first compound 1 µM
[11] = second compound 0.1 µM, first compound 3.16 µM
[12] = second compound 0.1 µM, first compound 10 µM
[13] = second compound 0.316 µM, first compound 0.0316 µM
[14] = second compound 0.316 µM, first compound 0.1 µM
[15] = second compound 0.316 µM, first compound 0.316 µM
[16] = second compound 0.316 µM, first compound 1 µM
[17] = second compound 0.316 µM, first compound 3.16 µM
[18] = second compound 0.316 µM, first compound 10 µM
[19] = second compound 1 µM, first compound 0.0316 µM
[20] = second compound 1 µM, first compound 0.1 µM
[21] = second compound 1 µM, first compound 0.316 µM
[22] = second compound 1 µM, first compound 1 µM
[23] = second compound 1 µM, first compound 3.16 µM
[24] = second compound 1 µM, first compound 10 µM
[25] = second compound 3.16 µM, first compound 0.0316 µM
[26] = second compound 3.16 µM, first compound 0.1 µM
[27] = second compound 3.16 µM, first compound 0.316 µM
[28] = second compound 3.16 µM, first compound 1 µM
[29] = second compound 3.16 µM, first compound 3.16 µM
[30] = second compound 3.16 µM, first compound 10 µM
[31] = second compound 10 µM, first compound 0.0316 µM
[32] = second compound 10 µM, first compound 0.1 µM
[33] = second compound 10 µM, first compound 0.316 µM
[34] = second compound 10 µM, first compound 1 µM
[35] = second compound 10 µM, first compound 3.16 µM
[36] = second compound 10 µM, first compound 10 µM
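Note: spheroids exposed to compounds for 7 days before readout.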
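Throughout, for viability, T/C: percent of vehicle DMSO control viability with 100% = untreated-like growth.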

For `COc1ncnc(C2CC2)c1-c1ncc2cnn(Cc3ccc(-c4nc(C(F)(F)F)cn4C(C)C)cc3)c2n1` + CN(C)c1ccc(Nc2c3ccc(NC(=O)CCN4CCCC4)cc3nc3cc(NC(=O)CCN4CCCC4)ccc23)cc1, the IC50 (second compound 0.0316 µM) was greater than 10 µM, the IC50 (second compound 0.1 µM) was greater than 10 µM and the IC50 (second compound 0.316 µM) was greater than 10 µM. It also gave an IC50 (second compound 1 µM) greater than 10 µM, an IC50 (second compound 3.16 µM) greater than 10 µM and an IC50 (second compound 10 µM) greater than 10 µM. It also gave a viability, T/C [1] of 108%, a viability, T/C [2] of 83.7% and a viability, T/C [3] of 95.1%. It also gave a viability, T/C [4] of 76.5%, a viability, T/C [5] of 88.1% and a viability, T/C [6] of 66.2%. The viability, T/C [7] was 97.1%, the viability, T/C [8] was 90.2% and the viability, T/C [9] was 102%. For the same compound, the viability, T/C [10] was 87.6%, the viability, T/C [11] was 81.4% and the viability, T/C [12] was 76.7%. For the same compound, the viability, T/C [13] was 88.3%, the viability, T/C [14] was 95.8% and the viability, T/C [15] was 86.6%. It also gave a viability, T/C [16] of 78.5%, a viability, T/C [17] of 87.6% and a viability, T/C [18] of 77.8%. The viability, T/C [19] was 84.5%, the viability, T/C [20] was 83.4% and the viability, T/C [21] was 93%. For the same compound, the viability, T/C [22] was 75.4%, the viability, T/C [23] was 79.6% and the viability, T/C [24] was 80.8%. It also gave a viability, T/C [25] of 92.1%, a viability, T/C [26] of 85.8% and a viability, T/C [27] of 88.2%. The viability, T/C [28] was 86.4%, the viability, T/C [29] was 75% and the viability, T/C [30] was 77.7%. The viability, T/C [31] was 85.4%, the viability, T/C [32] was 66.8% and the viability, T/C [33] was 74.8%. The viability, T/C [34] was 66.3%, the viability, T/C [35] was 94.8% and the viability, T/C [36] was 82.3%.

`CC(C)n1c(=O)n(C)c2cnc3cc(F)c(-c4ccc(OCCCN5CCCCC5)nc4)cc3c21` + Cc1[nH]c2ccc(F)cc2c1-c1nc2c3cccnc3c3ncccc3c2[nH]1 gave an IC50 (second compound 0.0316 µM) greater than 10 µM, an IC50 (second compound 0.1 µM) greater than 10 µM and an IC50 (second compound 0.316 µM) greater than 10 µM. The IC50 (second compound 1 µM) was greater than 10 µM, the IC50 (second compound 3.16 µM) was 6.16 µM and the IC50 (second compound 10 µM) was 0.0435 µM. The viability, T/C [1] was 123%, the viability, T/C [2] was 91.5% and the viability, T/C [3] was 123%. For the same compound, the viability, T/C [4] was 104%, the viability, T/C [5] was 101% and the viability, T/C [6] was 94.1%. For the same compound, the viability, T/C [7] was 101%, the viability, T/C [8] was 118% and the viability, T/C [9] was 94.2%. The viability, T/C [10] was 88.6%, the viability, T/C [11] was 118% and the viability, T/C [12] was 92.6%. It also gave a viability, T/C [13] of 132%, a viability, T/C [14] of 115% and a viability, T/C [15] of 100%. It also gave a viability, T/C [16] of 112%, a viability, T/C [17] of 108% and a viability, T/C [18] of 91.5%. For the same compound, the viability, T/C [19] was 106%, the viability, T/C [20] was 116% and the viability, T/C [21] was 107%. The viability, T/C [22] was 112%, the viability, T/C [23] was 98.4% and the viability, T/C [24] was 93%. For the same compound, the viability, T/C [25] was 89%, the viability, T/C [26] was 78.8% and the viability, T/C [27] was 86.7%. It also gave a viability, T/C [28] of 66.3%, a viability, T/C [29] of 73.6% and a viability, T/C [30] of 36.5%. It also gave a viability, T/C [31] of 53%, a viability, T/C [32] of 40.7% and a viability, T/C [33] of 44.3%. The viability, T/C [34] was 29.6%, the viability, T/C [35] was 23.9% and the viability, T/C [36] was 19%.
